Experimental findings from PubChem BioAssay AID342 (DTP/NCI, 2004) are described below.

SMILES strings stand for the structures. Values joined by “and” are separate entries in the source; they are usually repeats but may differ in a detail not shown here. Equal values may be shown once.

In general, T/C refers to the result in the treated group divided by that in the control group, in per cent.

The test relates to Swiss mice, Sarcoma 180 sc, mean tumor weight T/C. In words: NCI In Vivo Anticancer Drug Screen. Data for tumor model Sarcoma 180 (subcutaneous) in Swiss mice. The following applies: endpoint: mean tumor weight, higher = larger tumour. In a few lines:
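Tumor-bearing mice, transplantable tumor; readout survival or tumor size; result = T/C, treated vs vehicle control.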

[1] abbreviates: dose: 100.0 mg/kg/injection, schedule: Q01DX007 (ip), vehicle: carboxymethylcellulose (CMC).
Where [2] appears, read: dose: 125.0 mg/kg/injection, schedule: Q01DX007 (ip), vehicle: carboxymethylcellulose (CMC).

Take `C[C@@H]1C[C@H]2CC[C@H](O2)[C@H](C)C(=O)O[C@@H](C)C[C@@H]2CC[C@@H](O2)[C@@H](C)C(=O)O[C@H](C)C[C@H]2CC[C@H](O2)[C@H](C)C(=O)O[C@@H](C)C[C@@H]2CC[C@@H](O2)[C@@H](C)C(=O)O1`: the T/C reads like this: (dose: 1.25 mg/kg/injection, schedule: Q#A X014 (ip), vehicle: olive oil, sesame oil, peanut oil) 96 % of control; (dose: 2.5 mg/kg/injection, schedule: Q#A X014 (ip), vehicle: olive oil, sesame oil, peanut oil) 88 % of control; (dose: 5.0 mg/kg/injection, schedule: Q#A X014 (ip), vehicle: olive oil, sesame oil, peanut oil) 90 % of control; (dose: 5.0 mg/kg/injection, schedule: Q#A X014 (sc), vehicle: olive oil, sesame oil, peanut oil) 82 % of control; (dose: 9.0 mg/kg/injection, schedule: Q#A X014 (ip), vehicle: carboxymethylcellulose (CMC)) 89 % of control; (dose: 10.0 mg/kg/injection, schedule: Q#A X014 (ip), vehicle: olive oil, sesame oil, peanut oil) 73 % of control and 83 % of control. In addition, the T/C is 81 % of control (dose: 10.0 mg/kg/injection, schedule: Q#A X014 (sc), vehicle: olive oil, sesame oil, peanut oil); 80 % of control (dose: 15.0 mg/kg/injection, schedule: Q#A X014 (sc), vehicle: olive oil, sesame oil, peanut oil); 111 % of control (dose: 18.0 mg/kg/injection, schedule: Q#A X014 (ip), vehicle: carboxymethylcellulose (CMC)); 57 % of control (dose: 20.0 mg/kg/injection, schedule: Q#A X014 (ip), vehicle: carboxymethylcellulose (CMC)); 53 % of control (dose: 25.0 mg/kg/injection, schedule: Q#A X014 (ip), vehicle: carboxymethylcellulose (CMC)); 77 % of control (dose: 25.0 mg/kg/injection, schedule: Q#A X014 (oral), vehicle: methylcellulose (MC)). Besides, the T/C reads like this: (dose: 30.0 mg/kg/injection, schedule: Q#A X014 (ip), vehicle: carboxymethylcellulose (CMC)) 89 % of control; (dose: 30.0 mg/kg/injection, schedule: Q#A X014 (sc), vehicle: olive oil, sesame oil, peanut oil) 50 % of control; (dose: 35.0 mg/kg/injection, schedule: Q#A X014 (ip), vehicle: carboxymethylcellulose (CMC)) 60 % of control; (dose: 35.0 mg/kg/injection, schedule: Q#A X014 (sc), vehicle: olive oil, sesame oil, peanut oil) 26 % of control; (dose: 40.0 mg/kg/injection, schedule: Q#A X014 (ip), vehicle: carboxymethylcellulose (CMC)) 64 % of control; (dose: 40.0 mg/kg/injection, schedule: Q#A X014 (sc), vehicle: olive oil, sesame oil, peanut oil) 32 % of control. The T/C was 114 % of control (dose: 50.0 mg/kg/injection, schedule: Q#A X014 (oral), vehicle: methylcellulose (MC)); 26 % of control (dose: 50.0 mg/kg/injection, schedule: Q#A X014 (sc), vehicle: olive oil, sesame oil, peanut oil); 106 % of control (dose: 54.0 mg/kg/injection, schedule: Q01DX007 (sc), vehicle: methylcellulose (MC)); 77 % of control (dose: 80.0 mg/kg/injection, schedule: Q01DX007 (sc), vehicle: methylcellulose (MC)); 93 % of control (dose: 100.0 mg/kg/injection, schedule: Q#A X014 (oral), vehicle: methylcellulose (MC)); 71 % of control (dose: 108.0 mg/kg/injection, schedule: Q03DX003 (sc), vehicle: methylcellulose (MC)). For the same molecule, the T/C (dose: 120.0 mg/kg/injection, schedule: Q01DX007 (sc), vehicle: methylcellulose (MC)) was 101 % of control; the T/C (dose: 162.0 mg/kg/injection, schedule: Q03DX003 (sc), vehicle: methylcellulose (MC)) was 115 % of control; the T/C (dose: 180.0 mg/kg/injection, schedule: Q01DX007 (sc), vehicle: methylcellulose (MC)) was 100 % of control; the T/C (dose: 200.0 mg/kg/injection, schedule: Q#A X014 (oral), vehicle: methylcellulose (MC)) is 95 % of control; the T/C (dose: 240.0 mg/kg/injection, schedule: Q03DX003 (sc), vehicle: methylcellulose (MC)) is 109 % of control; the T/C (dose: 360.0 mg/kg/injection, schedule: Q03DX003 (sc), vehicle: methylcellulose (MC)) is 102 % of control. Moreover, the T/C (dose: 540.0 mg/kg/injection, schedule: Q03DX003 (sc), vehicle: methylcellulose (MC)) is 152 % of control.

Regarding `COC(=O)C1=CO[C@@H](C)[C@@H]2Cn3ccc4c5ccccc5nc-4c3C[C@H]12`, the T/C was 113 % of control (dose: 10.0 mg/kg/injection, schedule: Q01DX007 (ip), vehicle: other) and 74 % of control (dose: 50.0 mg/kg/injection, schedule: Q01DX007 (ip), vehicle: other).

Take `CCOC(=O)CCCc1ccc(N=NN(C)C)cc1`: the T/C reads like this: (dose: 20.0 mg/kg/injection, schedule: Q01DX007 (ip), vehicle: saline) 99 % of control; (dose: 30.0 mg/kg/injection, schedule: Q01DX007 (ip), vehicle: saline) 69 % of control; (dose: 40.0 mg/kg/injection, schedule: Q01DX007 (ip), vehicle: saline) 63 % of control; (dose: 60.0 mg/kg/injection, schedule: Q01DX007 (ip), vehicle: saline) 68 % of control; (dose: 75.0 mg/kg/injection, schedule: Q01DX007 (ip), vehicle: saline) 38 % of control; (dose: 100.0 mg/kg/injection, schedule: Q01DX007 (ip), vehicle: saline) 44 % of control. Moreover, the T/C by setting is: (dose: 150.0 mg/kg/injection, schedule: Q01DX007 (ip), vehicle: saline) 31 % of control; (dose: 200.0 mg/kg/injection, schedule: Q01DX007 (ip), vehicle: saline) 12 % of control.

Turning to `C1CN1c1nc(N2CC2)nc(N2CC2)n1`, the T/C (dose: 85.0 micrograms/kg/injection, schedule: Q01DX007 (ip), vehicle: carboxymethylcellulose (CMC)) was 111 % of control; the T/C (dose: 170.0 micrograms/kg/injection, schedule: Q01DX007 (ip), vehicle: carboxymethylcellulose (CMC)) is 95 % of control; the T/C (dose: 340.0 micrograms/kg/injection, schedule: Q01DX007 (ip), vehicle: carboxymethylcellulose (CMC)) was 119 % of control; the T/C (dose: 680.0 micrograms/kg/injection, schedule: Q01DX007 (ip), vehicle: carboxymethylcellulose (CMC)) is 124 % of control.

On to `CCCCCCCCCCCCO[P+](=O)OCCCCCCCCCCCC`, for which the T/C under setting [1] is 111 % of control; the T/C (dose: 111.0 mg/kg/injection, schedule: Q#A X014 (ip), vehicle: carboxymethylcellulose (CMC)) was 45 % of control; the T/C (dose: 222.0 mg/kg/injection, schedule: Q01DX007 (ip), vehicle: carboxymethylcellulose (CMC)) was 47 % of control and 71 % of control; the T/C (dose: 250.0 mg/kg/injection, schedule: Q#A X014 (ip), vehicle: carboxymethylcellulose (CMC)) is 25 % of control; the T/C (dose: 300.0 mg/kg/injection, schedule: Q01DX007 (ip), vehicle: carboxymethylcellulose (CMC)) was 32 % of control; the T/C (dose: 333.0 mg/kg/injection, schedule: Q01DX007 (ip), vehicle: carboxymethylcellulose (CMC)) is 63 % of control and 65 % of control. In addition, the T/C is 20 % of control (dose: 375.0 mg/kg/injection, schedule: Q#A X014 (ip), vehicle: carboxymethylcellulose (CMC)); 42 % of control and 50 % of control (dose: 500.0 mg/kg/injection, schedule: Q01DX007 (ip), vehicle: carboxymethylcellulose (CMC)); 12 % of control (dose: 750.0 mg/kg/injection, schedule: Q01DX007 (ip), vehicle: carboxymethylcellulose (CMC)).

As to `CN(C)N=Nc1n[nH]nc1C(N)=O`, the T/C runs as follows: (dose: 31.0 mg/kg/injection, schedule: Q01DX007 (ip), vehicle: carboxymethylcellulose (CMC)) 70 % of control; (dose: 62.0 mg/kg/injection, schedule: Q01DX007 (ip), vehicle: carboxymethylcellulose (CMC)) 84 % of control; under setting [2], 43 % of control.

Take `COC(=O)C1=CO[C@H](C)[C@@H]2CN3CCc4c([nH]c5ccccc45)[C@@H]3C[C@H]12`: the T/C is 110 % of control (dose: 12.5 mg/kg/injection, schedule: Q01DX007 (ip), vehicle: carboxymethylcellulose (CMC)); 83 % of control (dose: 25.0 mg/kg/injection, schedule: Q01DX007 (ip), vehicle: carboxymethylcellulose (CMC)); 84 % of control (dose: 50.0 mg/kg/injection, schedule: Q01DX007 (ip), vehicle: carboxymethylcellulose (CMC)); 98 % of control under setting [1].

In the case of `COC1=C(N(C)C)C(=O)c2ncccc2C1=O`, the T/C is, setting by setting: (dose: 12.5 mg/kg/injection, schedule: Q01DX007 (ip), vehicle: water) 86 % of control; (dose: 25.0 mg/kg/injection, schedule: Q01DX007 (ip), vehicle: water) 72 % of control; (dose: 50.0 mg/kg/injection, schedule: Q01DX007 (ip), vehicle: water) 92 % of control.

As for `CC1(C)OCC(C(OC(=O)c2ccccc2)C(OC2CCCCO2)C2COC(C)(C)O2)O1` (configuration not stated), the T/C is 90 % of control (dose: 62.5 mg/kg/injection, schedule: Q01DX007 (ip), vehicle: carboxymethylcellulose (CMC)); 86 % of control under setting [2]; 100 % of control (dose: 250.0 mg/kg/injection, schedule: Q01DX007 (ip), vehicle: carboxymethylcellulose (CMC)).
